# Source: PubChem BioAssay (NCI)
#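 Method: 48-hour compound exposure of cells in 96-well plates, five concentrations, linear interpolation of endpoints. GI50 = concentration required for 50% inhibition of growth. At the TGI there is no net growth.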
# Columns and labels:
# Test in all cases: NCI anticancer screen, dose series, 48 h
# [1] = system: HCT-116 colon
# [2] = system: UACC-62 melanoma
# [3] = system: CAKI-1 renal
# [4] = system: SK-MEL-5 melanoma
# [5] = system: CCRF-CEM leukemia
# [6] = system: SF-295 CNS
# [7] = system: SF-268 CNS
# [8] = system: A498 renal
# [9] = system: NCI-H226 lung
# [10] = system: 786-0 renal
# [11] = system: HS 578T breast
# [12] = system: K-562 leukemia
# [13] = system: NCI-H460 lung
# [14] = system: SNB-75 CNS
# [15] = system: SF-539 CNS
# [16] = system: HL-60(TB) leukemia
# [17] = system: U251 CNS
# [18] = system: SK-MEL-28 melanoma
# [19] = system: SK-MEL-2 melanoma
# [20] = system: IGROV1 ovarian
# [21] = system: ACHN renal
# [22] = system: MDA-MB-468 breast
# [23] = system: A549 NSCLC
# [24] = system: TK-10 renal
# [25] = system: UO-31 renal
# [26] = system: RPMI-8226 leukemia
# [27] = system: MDA-MB-435
# [28] = system: BT-549 breast
# [29] = system: SK-OV-3 ovarian
# [30] = system: PC-3 prostate
# [31] = system: T-47D breast
# [32] = system: MCF7 breast
# [33] = system: MDA-MB-231 breast
# [34] = system: HCC-2998 colon
# [35] = system: SN12C renal
# [36] = system: LOX IMVI melanoma
# [37] = system: OVCAR-4 ovarian
# [38] = system: EKVX NSCLC
# [39] = system: RXF 393 renal
# [40] = system: OVCAR-5 ovarian
# [41] = system: NCI-H522 lung
# [42] = system: DU-145 prostate
# [43] = system: HOP-92 NSCLC
# [44] = system: M14 melanoma
# [45] = system: COLO 205 colon
# [46] = system: SW-620 colon
# [47] = system: HCT-15 colon
# [48] = system: HOP-62 NSCLC
# [49] = system: OVCAR-3 ovarian
# [50] = system: MOLT-4 leukemia
# [51] = system: NCI-H23 lung
# [52] = system: SR leukemia
# [53] = system: OVCAR-8 ovarian
# [54] = system: SNB-19 CNS
# [55] = system: KM12 colon
# [56] = system: MALME-3M melanoma
# [57] = system: HT29 colon
# [58] = system: UACC-257 melanoma
smiles,measurement,setting,value
N#Cc1c(-c2ccccc2Cl)cc(-c2ccc3ccccc3c2)[nH]c1=O,GI50,[1],27.2 µM
same,TGI,[1],89.8 µM
same,GI50,[2],27.9 µM
same,TGI,[2],> 100 µM
same,GI50,[3],15.9 µM
same,TGI,[3],33.1 µM
same,GI50,[4],15.6 µM
same,TGI,[4],46.6 µM
same,GI50,[5],> 100 µM
same,TGI,[5],> 100 µM
same,GI50,[6],17.2 µM
same,TGI,[6],33.8 µM
same,GI50,[7],28.4 µM
same,TGI,[7],> 100 µM
same,GI50,[8],15.9 µM
same,TGI,[8],34.3 µM
same,GI50,[9],16.1 µM
same,TGI,[9],38.9 µM
same,GI50,[10],16.4 µM
same,TGI,[10],30.8 µM
same,GI50,[11],18.5 µM
same,TGI,[11],54.9 µM
same,GI50,[12],> 100 µM
same,TGI,[12],> 100 µM
same,GI50,[13],22.2 µM
same,TGI,[13],56.9 µM
same,GI50,[14],10.2 µM
same,TGI,[14],27.7 µM
same,GI50,[15],20.9 µM
same,TGI,[15],46 µM
same,GI50,[16],> 100 µM
same,TGI,[16],> 100 µM
same,GI50,[17],17.6 µM
same,TGI,[17],38.5 µM
same,GI50,[18],28.1 µM
same,TGI,[18],> 100 µM
same,GI50,[19],14.9 µM
same,TGI,[19],32.5 µM
same,GI50,[20],34.2 µM
same,TGI,[20],> 100 µM
same,GI50,[21],18.8 µM
same,TGI,[21],39.9 µM
same,GI50,[22],23 µM
same,TGI,[22],73.2 µM
same,GI50,[23],27.3 µM
same,TGI,[23],> 100 µM
same,GI50,[24],18.3 µM
same,TGI,[24],41.8 µM
same,GI50,[25],16 µM
same,TGI,[25],34.9 µM
same,GI50,[26],76 µM
same,TGI,[26],> 100 µM
same,GI50,[27],27.8 µM
same,TGI,[27],> 100 µM
same,GI50,[28],25.2 µM
same,TGI,[28],85.9 µM
same,GI50,[29],15.9 µM
same,TGI,[29],32.4 µM
same,GI50,[30],41.1 µM
same,TGI,[30],> 100 µM
same,GI50,[31],27.3 µM
same,TGI,[31],> 100 µM
same,GI50,[32],38.1 µM
same,TGI,[32],> 100 µM
same,GI50,[33],20.3 µM
same,TGI,[33],45.5 µM
same,GI50,[34],53.1 µM
same,TGI,[34],> 100 µM
same,GI50,[35],31.7 µM
same,TGI,[35],> 100 µM
same,GI50,[36],44.4 µM
same,TGI,[36],> 100 µM
same,GI50,[37],17.2 µM
same,TGI,[37],38.9 µM
same,GI50,[38],31.4 µM
same,TGI,[38],> 100 µM
same,GI50,[39],13.5 µM
same,TGI,[39],28.8 µM
same,GI50,[40],75.7 µM
same,TGI,[40],> 100 µM
same,GI50,[41],68.2 µM
same,TGI,[41],> 100 µM
same,GI50,[42],36.1 µM
same,TGI,[42],> 100 µM
same,GI50,[43],11.3 µM
same,TGI,[43],26.8 µM
same,GI50,[44],20.1 µM
same,TGI,[44],54.9 µM
same,GI50,[45],53.5 µM
same,TGI,[45],> 100 µM
same,GI50,[46],42 µM
same,TGI,[46],> 100 µM
same,GI50,[47],84.8 µM
same,TGI,[47],> 100 µM
same,GI50,[48],15.3 µM
same,TGI,[48],29.8 µM
same,GI50,[49],24.2 µM
same,TGI,[49],94.3 µM
same,GI50,[50],> 100 µM
same,TGI,[50],> 100 µM
same,GI50,[51],28.4 µM
same,TGI,[51],> 100 µM
same,GI50,[52],> 100 µM
same,TGI,[52],> 100 µM
same,GI50,[53],17.6 µM
same,TGI,[53],36.3 µM
same,GI50,[54],18.5 µM
same,TGI,[54],42.5 µM
same,GI50,[55],88.4 µM
same,TGI,[55],> 100 µM
same,GI50,[56],16.3 µM
same,TGI,[56],35.7 µM
same,GI50,[57],> 100 µM
same,TGI,[57],> 100 µM
same,GI50,[58],22.2 µM
same,TGI,[58],71.9 µM
